{
  "source": "ChEMBL document CHEMBL4043096",
  "about": "“Synthesis of 6-hydroxyaurone analogues and evaluation of their α-glucosidase inhibitory and glucose consumption-promoting activity: Development of highly active 5,6-disubstituted derivatives” (Bioorg Med Chem Lett, 2017)",
  "key": {"[1]": {"assay": "Inhibition of baker's yeast alpha-glucosidase incubated for 30 mins using p-nitrophenyl-alpha-D-glucopyranoside substrate by spectrophotometry", "set-up": "species or system Saccharomyces cerevisiae"}, "Saccharomyces cerevisiae [2]": {"test_system": "Saccharomyces cerevisiae", "assay": "Mixed competitive inhibition of baker's yeast alpha-glucosidase incubated for 30 mins using p-nitrophenyl-alpha-D-glucopyranoside substrate by spectrophotometry based Lineweaver-Burk plot analysis"}, "Saccharomyces cerevisiae [3]": {"test_system": "Saccharomyces cerevisiae", "assay": "Irreversible inhibition of baker's yeast alpha-glucosidase incubated for 30 mins using p-nitrophenyl-alpha-D-glucopyranoside substrate by spectrophotometry based Lineweaver-Burk plot analysis"}, "Saccharomyces cerevisiae [4]": {"test_system": "Saccharomyces cerevisiae", "assay": "Irreversible inhibition of baker's yeast alpha-glucosidase at […] dialyzed for 24 hrs followed by compound re-treatment for 30 mins using p-nitrophenyl-alpha-D-glucopyranoside substrate"}, "HepG2 [5]": {"test_system": "HepG2", "assay": "Induction of glucose consumption in human HepG2 cells at 1 uM incubated for 24 hrs", "format": "functional, cell-based"}, "HepG2 [6]": {"test_system": "HepG2", "assay": "Induction of glucose consumption in human HepG2 cells at 1 mM incubated for 24 hrs", "format": "functional, cell-based"}},
  "note": "Activity calls are given as the source filed them. No cut-off for these calls is given here.",
  "data": [
    {"smiles": "CCOC(=O)/C=C1\\Oc2cc(O)c(-c3ccc(C(F)(F)F)cc3)cc2C1=O", "values": [
      {"measurement": "IC50", "setting": "[1]", "value": 14.3, "unit": "µM"}
    ]},
    {"smiles": "COc1ccc(COc2cc3c(cc2-c2ccc(C(F)(F)F)cc2)C(=O)CO3)cc1", "values": [
      {"measurement": "IC50", "setting": "[1]", "value": 10.9, "unit": "µM"}
    ]},
    {"smiles": "COc1cc2c(cc1-c1ccc(F)cc1)C(=O)CO2", "values": [
      {"measurement": "IC50", "setting": "[1]", "value": 9.88, "unit": "µM"},
      {"measurement": "inhibition", "setting": "Saccharomyces cerevisiae [2]", "value": "Active"},
      {"measurement": "inhibition", "setting": "Saccharomyces cerevisiae [3]", "value": "Active"},
      {"measurement": "inhibition", "setting": "Saccharomyces cerevisiae [4]", "value": "Active"},
      {"measurement": "Activity", "setting": "HepG2 [5]", "value": "Active"}
    ]},
    {"smiles": "COc1cc2c(cc1-c1ccc(C(F)(F)F)cc1)C(=O)CO2", "values": [
      {"measurement": "IC50", "setting": "[1]", "value": 21.2, "unit": "µM"}
    ]},
    {"smiles": "C[C@H]1O[C@H](O[C@H]2[C@H](O)[C@@H](O)[C@@H](O[C@H]3[C@H](O)[C@@H](O)C(O)O[C@@H]3CO)O[C@@H]2CO)[C@H](O)[C@@H](O)[C@@H]1N[C@H]1C=C(CO)[C@@H](O)[C@H](O)[C@H]1O", "note": "(stereo partly specified) [ACARBOSE]", "values": [
      {"measurement": "IC50", "setting": "[1]", "value": 50.3, "unit": "µM"}
    ]},
    {"smiles": "CCOC(=O)/C=C1\\Oc2cc(O)c(-c3ccc(F)cc3)cc2C1=O", "values": [
      {"measurement": "IC50", "setting": "[1]", "value": 11.1, "unit": "µM"}
    ]},
    {"smiles": "CN(C)C(=N)NC(=N)N", "values": [
      {"measurement": "Activity", "setting": "HepG2 [6]", "value": "Active"}
    ]},
    {"smiles": "COc1cc2c(cc1-c1ccccc1)C(=O)CO2", "values": [
      {"measurement": "IC50", "setting": "[1]", "value": 20.1, "unit": "µM"}
    ]},
    {"smiles": "O=C1/C(=C/c2ccc(O)cc2)Oc2cc(O)ccc21", "values": [
      {"measurement": "IC50", "setting": "[1]", "value": 76.7, "unit": "µM"}
    ]},
    {"smiles": "COc1ccc(COc2cc3c(cc2-c2ccc(F)cc2)C(=O)CO3)cc1", "values": [
      {"measurement": "IC50", "setting": "[1]", "value": 24.9, "unit": "µM"}
    ]},
    {"smiles": "O=C1/C(=C/c2ccccc2O)Oc2cc(O)ccc21", "values": [
      {"measurement": "IC50", "setting": "[1]", "value": 93, "unit": "µM"}
    ]},
    {"smiles": "COc1ccc(COc2cc3c(cc2-c2ccccc2)C(=O)CO3)cc1", "values": [
      {"measurement": "IC50", "setting": "[1]", "value": 10.6, "unit": "µM"},
      {"measurement": "Activity", "setting": "HepG2 [5]", "value": "inactive"}
    ]},
    {"smiles": "COc1ccc(/C=C2\\Oc3cc(O)ccc3C2=O)cc1OC", "values": [
      {"measurement": "IC50", "setting": "[1]", "value": "> 100", "unit": "µM"}
    ]},
    {"smiles": "COc1cc2c(cc1-c1ccc(F)cc1)C(=O)/C(=C/c1ccccc1)O2", "values": [
      {"measurement": "IC50", "setting": "[1]", "value": "> 100", "unit": "µM"}
    ]},
    {"smiles": "O=C1/C(=C/c2ccc(O)cc2O)Oc2cc(O)ccc21", "values": [
      {"measurement": "IC50", "setting": "[1]", "value": 79.2, "unit": "µM"}
    ]},
    {"smiles": "O=C1/C(=C/c2ccccc2)Oc2cc(O)c(-c3ccc(C(F)(F)F)cc3)cc21", "values": [
      {"measurement": "IC50", "setting": "[1]", "value": 30.9, "unit": "µM"},
      {"measurement": "Activity", "setting": "HepG2 [5]", "value": "Active"}
    ]},
    {"smiles": "CCOC(=O)/C=C1\\Oc2cc(OCc3ccc(OC)cc3)ccc2C1=O", "values": [
      {"measurement": "IC50", "setting": "[1]", "value": 33.4, "unit": "µM"}
    ]},
    {"smiles": "O=C1/C(=C/c2ccc(O)c(O)c2)Oc2cc(O)ccc21", "note": "[SULFURETIN]", "values": [
      {"measurement": "IC50", "setting": "[1]", "value": 67.6, "unit": "µM"}
    ]},
    {"smiles": "O=C1/C(=C/c2cccc(O)c2)Oc2cc(O)ccc21", "values": [
      {"measurement": "IC50", "setting": "[1]", "value": "> 100", "unit": "µM"}
    ]},
    {"smiles": "COc1cc2c(cc1-c1ccccc1)C(=O)/C(=C/c1ccccc1)O2", "values": [
      {"measurement": "IC50", "setting": "[1]", "value": "> 100", "unit": "µM"}
    ]},
    {"smiles": "COc1ccc(COc2ccc3c(c2)OCC3=O)cc1", "values": [
      {"measurement": "IC50", "setting": "[1]", "value": "> 100", "unit": "µM"}
    ]},
    {"smiles": "O=C1c2ccc(O)cc2OC1Cc1ccc(O)c(O)c1", "note": "(stereo unspecified)", "values": [
      {"measurement": "IC50", "setting": "[1]", "value": 63.4, "unit": "µM"}
    ]},
    {"smiles": "COc1ccc(COc2ccc3c(c2)O/C(=C\\c2ccccc2)C3=O)cc1", "values": [
      {"measurement": "IC50", "setting": "[1]", "value": 19.8, "unit": "µM"}
    ]},
    {"smiles": "O=C1/C(=C/c2ccccc2)Oc2cc(O)ccc21", "values": [
      {"measurement": "IC50", "setting": "[1]", "value": "> 100", "unit": "µM"}
    ]},
    {"smiles": "CCOC(=O)/C=C1\\Oc2cc(OC)c(-c3ccc(F)cc3)cc2C1=O", "values": [
      {"measurement": "IC50", "setting": "[1]", "value": 26.6, "unit": "µM"}
    ]}
  ]
}
